Data from patent US12060333B2 (Hoffmann-La Roche Inc., priority 2021, dated 2024).

Molecular target: SARS-CoV-2 3CLpro (Severe acute respiratory syndrome coronavirus 2, UniProt P0DTD1)
Assay: biochemical
Conditions: IC50 (μM), SARS-CoV-2 3CLPro assay

Going from `CC(C)C[C@H](NC(=O)c1cc2ccccc2[nH]1)C(=O)NN(CC1CCNC1=O)C(=O)CCl` (mixture of isomers) [Example 51, N-[(1S)-1-[[(2-Chloroacetyl)-[(2-oxo-pyrrolidin-3-yl)methyl]amino]carbamoyl]-3-methyl-butyl]-1H-indole-2-carboxamide] to `CC(C)C[C@H](NC(=O)c1cc2ccccc2[nH]1)C(=O)NN(C[C@@H]1CCNC1=O)C(=O)CF` (single isomer, unassigned) [Example 38-A], the IC50 rises from 0.004 µM to 0.074 µM (18-fold).

Going from `COc1cccc2[nH]c(C(=O)NC(CC(C)C)C(=O)NN(CCC(N)=O)C(=O)[C@@H](F)Cl)cc12` (mixture of isomers) [Example 54-A, 4-Methoxy-N-[rac-(1S)-1-[[(3-amino-3-oxo-propyl)-[(2S)-2-chloro-2-fluoro-acetyl]amino]carbamoyl]-3-methyl-butyl]-1H-indole-2-carboxamide] to `CC(C)C[C@H](NC(=O)c1cc2c(Cl)cccc2[nH]1)C(=O)NN(CCC(N)=O)C(=O)[C@@H](F)Cl` (single isomer, unassigned) [Example 53-A], the IC50 rises from 0.004 µM to 0.014 µM (3.5-fold). The first is the more potent here.

Going from `CC(C)C[C@H](NC(=O)c1cc2cc(F)ccc2[nH]1)C(=O)NN(CCC(N)=O)C(=O)[C@@H](F)Cl` (racemic) [Example 57-A, 5-fluoro-N-[rac-(1S)-1-[[(3-amino-3-oxo-propyl)-[rac-(2S)-2-chloro-2-fluoro-acetyl]amino]carbamoyl]-3-methyl-butyl]-1H-indole-2-carboxamide] to `CC(C)C[C@H](NC(=O)c1cc2cc(F)ccc2[nH]1)C(=O)NN(CCC(N)=O)C(=O)[C@H](F)Cl` (racemic) [Example 57-B, 5-fluoro-N-[rac-(1S)-1-[[(3-amino-3-oxo-propyl)-[rac-(2R)-2-chloro-2-fluoro-acetyl]amino]carbamoyl]-3-methyl-butyl]-1H-indole-2-carboxamide], the IC50 falls from 0.067 µM to 0.01 µM (6.7-fold). The second is the more potent here.

First: CC(C)C[C@H](NC(=O)c1cc2cc(Cl)ccc2[nH]1)C(=O)NN(CCC(N)=O)C(=O)[C@@H](F)Cl (racemic) [Example 58-A, 5-Chloro-N-[rac-(1S)-1-[[(3-amino-3-oxo-propyl)-[rac-(2S)-2-chloro-2-fluoro-acetyl]amino]carbamoyl]-3-methyl-butyl]-1H-indole-2-carboxamide]
Second: CC(C)C[C@H](NC(=O)c1cc2cc(Cl)ccc2[nH]1)C(=O)NN(CCC(N)=O)C(=O)[C@H](F)Cl (racemic) [Example 58-B, 5-chloro-N-[rac-(1S)-1-[[(3-amino-3-oxo-propyl)-[rac-(2R)-2-chloro-2-fluoro-acetyl]amino]carbamoyl]-3-methyl-butyl]-1H-indole-2-carboxamide]
The IC50 of the first is 4.6-fold higher: 0.032 µM for the first, 0.007 µM for the second.

Going from `CC(C)C[C@H](NC(=O)c1nc2cc(Cl)ccc2[nH]1)C(=O)NN(CCC(N)=O)C(=O)[C@@H](F)Cl` (racemic) [Example 60-A, 5-chloro-N-[rac-(1S)-1-[[(3-amino-3-axo-propyl)-[rac-(2S)-2-chloro-2-fluoro-acetyl]amino]carbamoyl]-3-methyl-butyl]-1H-benzimidazole-2-carboxamide] to `CC(C)C[C@H](NC(=O)c1nc2cc(Cl)ccc2[nH]1)C(=O)NN(CCC(N)=O)C(=O)[C@H](F)Cl` (racemic) [Example 60-B, 5-chloro-N-[rac-(1S)-1-[[(3-amino-3-oxo-propyl)-[rac-(2R)-2-chloro-2-fluoro-acetyl]amino]carbamoyl]-3-methyl-butyl]-1H-benzimidazole-2-carboxamide], the IC50 rises from 0.008 µM to 0.052 µM (6.5-fold). The first is the more potent here.

First: NC(=O)CCN(NC(=O)[C@H](CC1CC1)NC(=O)c1cc2ccccc2[nH]1)C(=O)C(F)Cl (mixture of isomers) [Example 62, N-[rac-(1S)-2-[2-(3-amino-3-oxo-propyl)-2-(2-chloro-2-fluoro-acetyl)hydrazino]-1-(cyclopropylmethyl)-2-axo-ethyl]-1H-indole-2-carboxamide]
Second: CC(C)C[C@H](NC(=O)c1cc2ccccc2[nH]1)C(=O)NN(CCC(N)=O)C(=O)[C@@H](F)Cl (single isomer, unassigned) [Example 41-A]
The IC50 of the first is 3.4-fold higher: 0.017 µM for the first, 0.005 µM for the second. The second is the more potent here.

`NC(=O)CCN(NC(=O)[C@H](CC1CCC1)NC(=O)c1nc2ccccc2[nH]1)C(=O)C(F)Cl` (mixture of isomers) [Example 66, N-[rac-(1S)-2-[2-(3-amino-3-oxo-propyl)-2-(2-chloro-2-fluoro-acetyl)hydrazino]-1-(cyclobutylmethyl)-2-axo-ethyl]-1H-benzimidazole-2-carboxamide] and `NC(=O)CCN(NC(=O)[C@H](CC12CC(C1)C2)NC(=O)c1nc2ccccc2[nH]1)C(=O)C(F)Cl` (mixture of isomers) [Example 67, N-[rac-(1S)-2-[2-(3-amino-3-oxo-propyl)-2-(2-chloro-2-fluoro-acetyl)hydrazino]-1-(1-bicyclo[1.1.1]pentanylmethyl)-2-axo-ethyl]-1H-benzimidazole-2-carboxamide] are within 1.5-fold of each other in IC50: 0.034 µM for the first, 0.023 µM for the second.

First: Cc1cc(C(=O)N[C@@H](CC2CCCCC2)C(=O)NN(CCC(N)=O)C(=O)C(F)Cl)no1 (mixture of isomers) [Example 74, 5-Methyl-N-[rac-(1S)-2-[2-(3-amino-3-oxo-propyl)-2-(2-chloro-2-fluoro-acetyl)hydrazino]-1-(cyclohexylmethyl)-2-axo-ethyl]isoxazole-3-carboxamide]
Second: Cc1cc(C(=O)N[C@@H](CC2CC2)C(=O)NN(CCC(N)=O)C(=O)C(F)Cl)no1 (mixture of isomers) [Example 75, 5-Methyl-N-[rac-(1S)-2-[2-(3-amino-3-oxo-propyl)-2-(2-chloro-2-fluoro-acetyl)hydrazino]-1-(cyclopropylmethyl)-2-axo-ethyl]isoxazole-3-carboxamide]
The IC50 of the first is 11-fold lower: 0.028 µM for the first, 0.32 µM for the second. The first is the more potent here.

Compared with `NC(=O)CCN(NC(=O)[C@H](CC1CCC1)NC(=O)c1cnccn1)C(=O)C(F)Cl` (mixture of isomers) [Example 79, N-[rac-(1S)-2-[2-(3-amino-3-oxo-propyl)-2-(2-chloro-2-fluoro-acetyl)hydrazino]-1-(cyclobutylmethyl)-2-axo-ethyl]pyrazine-2-carboxamide], `NC(=O)CCN(NC(=O)[C@H](CC1CCCCC1)NC(=O)c1cn2ccccc2n1)C(=O)C(F)Cl` (mixture of isomers) [Example 82, N-[rac-(1S)-2-[2-(3-amino-3-oxo-propyl)-2-(2-chloro-2-fluoro-acetyl)hydrazino]-1-(cyclohexylmethyl)-2-axo-ethyl]imidazo[1,2-a]pyridine-2-carboxamide] is 3.5-fold lower in IC50: 0.15 µM for the first, 0.043 µM for the second. The second is the more potent here.

First: COc1cc2cc(C(=O)N[C@@H](CC(C)C)C(=O)NN(CCC(N)=O)C(=O)C(F)Cl)[nH]c2cn1 (mixture of isomers) [Example 89, 5-methoxy-N-[rac-(1S)-1-[[(3-amino-3-axo-propyl)-(2-chloro-2-fluoro-acetyl)amino]carbamoyl]-3-methyl-butyl]-1H-pyrrolo[2,3-c]pyridine-2-carboxamide]
Second: CC(C)C[C@H](NC(=O)c1cc2ccccc2[nH]1)C(=O)NN(CCC(N)=O)C(=O)[C@H](F)Cl (single isomer, unassigned) [Example 41-B]
The IC50 of the first is 1.8-fold lower: 0.019 µM for the first, 0.034 µM for the second.

Compared with `CC(C)CC(NC(=O)c1cn2ccccc2n1)C(=O)NN(CCC(N)=O)C(=O)C(F)Cl` (racemic) [Example 95, N-[rac-(1S)-1-[[(3-amino-3-oxo-propyl)-(2-chloro-2-fluoro-acetyl)amino]carbamoyl]-3-methyl-butyl]imidazo[1,2-a]pyridine-2-carboxamide], `CC(C)C[C@H](NC(=O)c1nc2ccccc2[nH]1)C(=O)NN(CCC(N)=O)C(=O)[C@@H](F)Cl` (single isomer, unassigned) [Example 63-A] is 15-fold lower in IC50: 0.65 µM for the first, 0.043 µM for the second. The second is the more potent here.

Going from `CC(C)C[C@H](NC(=O)c1ncc[nH]1)C(=O)NN(CCC(N)=O)C(=O)C(F)Cl` (mixture of isomers) [Example 96, N-[rac-(1S)-1-[[(3-amino-3-oxo-propyl)-(2-chloro-2-fluoro-acetyl)amino]carbamoyl]-3-methyl-butyl]-1H-imidazole-2-carboxamide] to `CC(C)C[C@H](NC(=O)c1nc2ccccc2[nH]1)C(=O)NN(CCC(N)=O)C(=O)[C@H](F)Cl` (single isomer, unassigned) [Example 63-B], the IC50 falls from 0.66 µM to 0.007 µM (94-fold).

First: Cc1cc(C(=O)NC(CC(C)C)C(=O)NN(CCC(N)=O)C(=O)C(F)Cl)no1 (racemic) [Example 97, 5-Methyl-N-[rac-(1S)-1-[[(3-amino-3-oxo-propyl)-(2-chloro-2-fluoro-acetyl)amino]carbamoyl]-3-methyl-butyl]isoxazole-3-carboxamide]
Second: CC(C)C[C@H](NC(=O)c1cc2c(Cl)cccc2[nH]1)C(=O)NN(CCC(N)=O)C(=O)[C@H](F)Cl (single isomer, unassigned) [Example 53-B]
The IC50 of the first is 36-fold higher: 0.91 µM for the first, 0.025 µM for the second. The second is the more potent here.

Compared with `NC(=O)CCN(NC(=O)[C@H](CC1CCCCC1)NC(=O)OCc1ccccc1)C(=O)[C@@H](F)Cl` (single isomer, unassigned) [Example 16-A], `NC(=O)CCN(NC(=O)[C@H](CC1CCCCC1)NC(=O)OCc1ccccc1)C(=O)[C@H](F)Cl` (single isomer, unassigned) [Example 16-B] is 26-fold lower in IC50: 0.053 µM for the first, 0.002 µM for the second. The second is the more potent here.

Compared with `CC(C)C[C@H](NC(=O)OCc1ccccc1)C(=O)NN(CCC(N)=O)C(=O)[C@@H](F)Cl` (single isomer, unassigned) [Example 17-A], `CC(C)C[C@H](NC(=O)OCc1ccccc1)C(=O)NN(CCC(N)=O)C(=O)[C@H](F)Cl` (single isomer, unassigned) [Example 17-B] is 21-fold lower in IC50: 1.63 µM for the first, 0.077 µM for the second. The second is the more potent here.

Going from `CC(C)C[C@H](NC(=O)c1cc2ccccc2[nH]1)C(=O)NN(C[C@H]1CCNC1=O)C(=O)CF` (single isomer, unassigned) [Example 38-B] to `COc1cccc(NCC(=O)N[C@@H](CC(C)C)C(=O)NN(CCC(N)=O)C(=O)[C@H](F)Cl)c1` (single isomer, unassigned) [Example 83-A], the IC50 falls from 3.16 µM to 0.9 µM (3.5-fold). The second is the more potent here.

For `COc1cccc(NCC(=O)N[C@@H](CC(C)C)C(=O)NN(CCC(N)=O)C(=O)[C@@H](F)Cl)c1` (single isomer, unassigned) [Example 83-B], the IC50 was 0.06 µM.

Same assay, conditions: read-out: IC50 (μM), SARS-CoV-2 3CLPro assay

For `CC(C)C[C@H](NC(=O)c1cc2ccccn2n1)C(=O)NN(CCC(N)=O)C(=O)C(F)Cl` (mixture of isomers) [Example 90, N,N-[rac-(1S)-1-[[(3-amino-3-oxo-propyl)-(2-chloro-2-fluoro-acetyl)amino]carbamoyl]-3-methyl-butyl]pyrazolo[1,5-a]pyridine-2-carboxamide], the IC50 was 0.073 µM.
